Results: US8168651B2, “Protein kinase modulators” (Cylene Pharmaceuticals, Inc., priority 2008, dated 2012)

Key:
recombinant human CK2 = recombinant human CK2 (Homo sapiens (Human), UniProt P68400); test: CK2 assay (cell-free, 33P-ATP filter plate); format: biochemical; details: 500 nM compound, cell-free assay; read-out: CK2: % inh 500 nM
[1] = test system: HCT-116 human colorectal carcinoma cells; test: Cell-proliferation assay using Alamar Blue dye; format: cell-based; details: Homo sapiens, HCT-116, second HCT-116 column (c8); read-out: HCT-116 (uM) cell proliferation modulatory activity;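 further: cells exposed to compound for about 4 days, then Alamar Blue added and dye fluorescence read after about 4 h, compared with medium-only control wells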
recombinant human PIM1 = recombinant human PIM1 (Homo sapiens (Human), UniProt P11309); test: PIM-1 kinase activity in cell-free in vitro assay; format: biochemical; details: cell-free assay; for inhibition at 0.5 µM: 500 nM compound, read-out: PIM-1: % inh 500 nM
K-562 = test: Cell proliferation modulatory activity, K-562; format: cell-based; details: Homo sapiens, K562; K-562 cells
MV-4-11 = test: Cell proliferation modulatory activity, MV-4-11; format: cell-based; details: Homo sapiens, MV4-11; MV-4-11 cells

Chain of recombinant human CK2 (P68400 whole entry): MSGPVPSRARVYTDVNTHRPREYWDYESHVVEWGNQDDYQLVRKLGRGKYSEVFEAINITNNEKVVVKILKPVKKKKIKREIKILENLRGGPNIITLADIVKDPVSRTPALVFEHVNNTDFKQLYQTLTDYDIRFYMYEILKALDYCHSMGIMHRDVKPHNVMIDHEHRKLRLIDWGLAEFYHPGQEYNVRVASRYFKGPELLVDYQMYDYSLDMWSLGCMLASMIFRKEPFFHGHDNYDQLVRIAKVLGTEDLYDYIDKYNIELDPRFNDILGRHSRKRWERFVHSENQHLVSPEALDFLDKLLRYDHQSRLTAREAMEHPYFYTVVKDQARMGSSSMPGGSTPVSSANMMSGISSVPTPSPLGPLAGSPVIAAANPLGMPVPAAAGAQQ
Chain of recombinant human CK2 (P67870 whole entry partner): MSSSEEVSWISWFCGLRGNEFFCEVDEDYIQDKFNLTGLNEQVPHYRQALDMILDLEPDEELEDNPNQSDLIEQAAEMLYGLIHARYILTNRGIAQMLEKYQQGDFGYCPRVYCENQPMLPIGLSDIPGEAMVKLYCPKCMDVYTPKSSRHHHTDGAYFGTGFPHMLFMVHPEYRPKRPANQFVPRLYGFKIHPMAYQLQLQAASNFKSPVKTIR
Chain of recombinant human PIM1 (P11309 whole entry): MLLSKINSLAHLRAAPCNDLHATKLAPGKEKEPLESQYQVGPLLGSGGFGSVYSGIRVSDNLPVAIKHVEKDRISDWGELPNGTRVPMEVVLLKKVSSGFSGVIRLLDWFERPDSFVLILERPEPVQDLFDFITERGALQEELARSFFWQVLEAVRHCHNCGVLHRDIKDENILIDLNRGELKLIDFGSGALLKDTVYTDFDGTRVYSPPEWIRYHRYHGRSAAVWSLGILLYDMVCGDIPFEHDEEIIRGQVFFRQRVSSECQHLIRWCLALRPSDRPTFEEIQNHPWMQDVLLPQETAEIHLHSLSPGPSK

SMILES | inhibition at 0.5 µM (recombinant human CK2) [%] | IC50 [1] [µM] | inhibition at 0.5 µM (recombinant human PIM1) [%] | IC50 (K-562) [µM] | IC50 (MV-4-11) [µM] | IC50 (recombinant human PIM1) [µM]
O=C(O)c1ccc2c(c1)nc(Nc1ccc3ncccc3c1)c1ccncc12 | 101 | > 10 | 93.9 | > 10 | 3.2 | 0.089
CN(c1cccc(Cl)c1)c1nc2cc(C(=O)O)ccc2c2cnccc12 | 89.6 | > 10 | 34.8 | > 10 | > 10 | 
O=C(O)c1ccc2c(c1)nc(Nc1ccc3cn[nH]c3c1)c1ccncc12 | 101 | > 10 | 75.1 | > 10 | > 10 | 0.228
N#Cc1cc(F)cc(Nc2nc3cc(C(=O)O)ccc3c3cnccc23)c1 | 101 | > 10 | 94.6 | > 10 | > 10 | 0.096
CNc1ccc(C#N)cc1Nc1nc2cc(C(=O)O)ccc2c2cnccc12 | 65 | > 10 | 19 | > 10 | 6.15 | 
O=C(O)c1ccc2c(c1)nc(NCCc1ccccc1)c1cnccc12 | -0.531 | > 10 | 42.2 | > 10 | > 10 | 
O=C(O)c1ccc2c(c1)nc(Nc1ccc(F)c(Cl)c1)c1cnccc12 | 1.69 | > 10 | 10.8 | > 10 | > 10 | 
O=C(O)c1ccc2c(c1)nc(Nc1ccccc1)c1cnccc12 | -40.3 | > 10 | -22.8 | > 10 | > 10 | 
CN(c1ccccc1)c1nc2cc(C(=O)O)ccc2c2ccncc12 | 15.3 | > 10 | 56.8 | > 10 | > 10 | 0.602
O=C(O)c1ccc2c(c1)nc(Nc1cccc(F)c1)c1cnccc12 | 35.8 | > 10 | 55.4 | > 10 | > 10 | 0.746
N#Cc1ccc2c(c1)nc(Nc1ccc(F)c(Cl)c1)c1cscc12 | -8.36 | > 10 | -26.3 | > 10 | > 10 | 
N#Cc1ccc2c(c1)nc(Nc1cccc(C(F)(F)F)c1)c1cscc12 | -2.65 | > 10 | -33.2 | > 10 | > 10 | 
Fc1ccc(Nc2nc3cc(-c4nnn[nH]4)ccc3c3cscc23)cc1Cl | 51.1 | > 10 | 14.2 | > 10 | 5.71 | 
Fc1ccc(Nc2nc3cc(-c4nnn[nH]4)ccc3c3cscc23)cc1 | 37.6 | > 10 | 30.6 | > 10 | 5.47 | 
Clc1ccc(Nc2nc3cc(-c4nnn[nH]4)ccc3c3cscc23)cc1 | 39.5 | > 10 | 15.2 | > 10 | 6.44 | 
Fc1cc(Cl)cc(Nc2nc3cc(-c4nnn[nH]4)ccc3c3cscc23)c1 | 57.3 | > 10 | 11.4 | > 10 | > 10 | 
Clc1cccc(Nc2nc3cc(-c4nnn[nH]4)ccc3c3cscc23)c1 | 63.3 | > 10 | 17.9 | > 10 | > 10 | 
Fc1cccc(Nc2nc3cc(-c4nnn[nH]4)ccc3c3cscc23)c1 | 52.6 | > 10 | 14 | > 10 | > 10 | 
Fc1cc(F)cc(Nc2nc3cc(-c4nnn[nH]4)ccc3c3cscc23)c1 | 52.6 | > 10 | 11.1 | > 10 | > 10 | 
FC(F)(F)c1cccc(Nc2nc3cc(-c4nnn[nH]4)ccc3c3cscc23)c1 | 23.1 | > 10 | -6.51 | > 10 | > 10 | 
CCN1CCC[C@@H]1CNc1nc2cc(-c3nnn[nH]3)ccc2c2sccc12 | 78.1 | > 10 | 89.9 | > 10 | > 10 | 0.065
CCN1CCC[C@H]1CNc1nc2cc(-c3nnn[nH]3)ccc2c2sccc12 | 59.8 | > 10 | 84.1 | > 10 | > 10 | 0.118
CN(C)CCNc1nc2cc(-c3nnn[nH]3)ccc2c2sc(-c3ccccc3)cc12 | 0.269 | > 10 | -14.8 | > 10 | > 10 | 
N#Cc1ccc2c(c1)nc(Cl)c1sccc12 | -11.5 | > 10 | -23.9 | > 10 | > 10 | 
Clc1cccc(Nc2nc3cc(-c4nnn[nH]4)ccc3c3ccsc23)c1 | 56.2 | > 10 | 31.9 | > 10 | 4.47 | 

Continued, values first:

inhibition at 0.5 µM (recombinant human CK2) [%] | IC50 [1] [µM] | inhibition at 0.5 µM (recombinant human PIM1) [%] | IC50 (K-562) [µM] | IC50 (MV-4-11) [µM] | IC50 (recombinant human PIM1) [µM] | SMILES
76.2 | 2.34 | 26.2 | > 10 | 1.43 |  | Cc1c(-c2ccccc2)nn(C)c1Nc1nc2cc(C(=O)O)ccc2c2cnccc12
101 | > 10 | 79.1 | > 10 | > 10 | 0.281 | O=C(O)c1ccc2c(c1)nc(Nc1cccc3ncccc13)c1ccncc12
93.1 | > 10 | 35.7 | > 10 | > 10 |  | O=C(O)c1ccc2c(c1)nc(Nc1cccc3ccccc13)c1ccncc12
98.1 | 9.82 | 32.6 | 0.11 | 3.28 |  | CCn1c2ccccc2c2cc(Nc3nc4cc(C(=O)O)ccc4c4cnccc34)ccc21
94.4 | > 10 | 54.9 | > 10 | > 10 | 0.344 | Cn1cnnc1-c1cccc(Nc2nc3cc(C(=O)O)ccc3c3cnccc23)c1
98 | > 10 | 60.6 | 0.132 | 9.31 | 0.478 | Cc1ccc(Nc2nc3cc(C(=O)O)ccc3c3cnccc23)cc1
91.8 | > 10 | 28 | 0.339 | > 10 |  | CCN(c1ccccc1)c1nc2cc(C(=O)O)ccc2c2cnccc12
100 | > 10 | 81.8 | > 10 | > 10 | 0.321 | Nc1ccc(CCNc2nc3cc(C(=O)O)ccc3c3cnccc23)cc1
61.1 | > 10 | 59.9 | > 10 | > 10 | 0.634 | O=C(O)c1ccc2c(c1)nc(Nc1cccc(Cl)c1)c1cccnc12
19.6 | > 10 | 22.1 | > 10 | > 10 |  | O=C(O)c1ccc2c(c1)nc(Nc1ccc(F)c(Cl)c1)c1cccnc12
77.5 | > 10 | 34.9 | > 10 | > 10 |  | C#Cc1cccc(Nc2nc3cc(C(=O)O)ccc3c3ncccc23)c1
25.5 | > 10 | 34.7 | > 10 | > 10 |  | O=C(O)c1ccc2c(c1)nc(Nc1ccccc1)c1cccnc12
5.71 | > 10 | 13.7 | > 10 | > 10 |  | O=C(O)c1ccc2c(c1)nc(NCCc1ccccc1)c1cccnc12
35 | > 10 | 37.8 | > 10 | > 10 |  | O=C(O)c1ccc2c(c1)nc(Nc1cccc(F)c1)c1cccnc12
94.5 | > 10 | 86.6 | > 10 | > 10 | 0.147 | CNc1ncc2c(n1)c(N(C)c1ccccc1)nc1cc(C(=O)O)ccc12
14 | > 10 | 12.2 | > 10 | > 10 |  | CN(C)c1ncc2c(n1)c(N(C)c1ccccc1)nc1cc(C(=O)O)ccc12
91.7 | > 10 | 39.9 | > 10 | > 10 |  | CC(C)Nc1ncc2c(n1)c(N(C)c1ccccc1)nc1cc(C(=O)O)ccc12
79.4 | > 10 | 54.9 | > 10 | > 10 | 0.649 | CCOCCNc1ncc2c(n1)c(N(C)c1ccccc1)nc1cc(C(=O)O)ccc12
0.786 | > 10 | 7 | > 10 | 7.04 |  | c1ccc(Nc2nc3ccccc3c3cnccc23)cc1
9.99 | > 10 | -2.61 | > 10 | > 10 |  | Clc1nc2ccccc2c2cnccc12
97.8 | > 10 | 76.7 | > 10 | 5.9 | 0.365 | O=C(O)c1ccc2c(c1)nc(Nc1ccc(Br)cc1)c1ccncc12
